Experimental data as given in patent US8247403B2, “Benzoxazepine derivatives and use thereof” (Takeda Pharmaceutical Company Limited, priority 2007, dated 2012).
Where a name gives a salt, the structure may show the parent alone.

Key:
[1] = target: serotonin 5-HT2C receptor (Homo sapiens, UniProt P28335, I156V/I160V/N158S); experiment: cell-based; conditions: CHO, read-out: ratio to maximum response by 5-HT (1 μM)
[2] = test system: female spinal cord transected rat whose hypogastric nerve and pudendal nerves were bilaterally cut; experiment: Urethral closure response induced by increased bladder pressure in rat with hypogastric and pudendal nerves cut; type: in vivo
Experimental: SD female rats (body weight 230-274 g) were anesthetized with urethane (Wako Pure Chemical Industries, Ltd.), and the spinal cord was cut at T8-9 level to eliminate the micturition reflex. During the operation, halothane (Takeda Pharmaceutical Company Limited) anesthesia was added as necessary. The abdomen was opened, the bladder neck was ligated with a suture thread, and then, the hypogastric nerve and the pudendal nerves were bilaterally cut. A catheter (PE-90, Clay Adams) was inserted in the bladder, and the other end of the bladder catheter was connected to the pressure transducer and an aquatic reservoir (60 ml syringe) of saline via a three-way cock. A microchip transducer catheter (SPR-524, Millar Instruments Inc.) was inserted from the urethral orifice toward the bladder, and the transducer part was adjusted to be in the urethra at 10.0-15.0 mm from the urethral orifice using the scale on the catheter surface. The topical changes in the urethral pressure (hereinafter to be referred to as urethral pressure for convenience) measured by the microchip transducer were input into a computer via an amplifier (BP Amp; ADINSTRUMENTS) and a data analyzer (Powerlab 4/25; ADINSTRUMENTS; sampled at 1000 Hz), and recorded on a hard disk. […] The response of the urethra induced by the increased bladder pressure was repeatedly measured, and the average value of the last two measures was taken as the value before drug administration. The evaluation item was reflective urethral closure response, and the average urethral pressure for 30 seconds before increasing the bladder pressure and 30 seconds when the bladder pressure was raised to 50 cm was calculated. Then, the value before bladder pressure increase was subtracted from the value during bladder pressure increase and taken as the urethral closure response. […] The drug was dissolved in saline with dimethylformamide, and intravenously administered at 1 ml/kg.

Chain of serotonin 5-HT2C receptor (P28335 33-458 I156V/N158S/I160V limits assumed): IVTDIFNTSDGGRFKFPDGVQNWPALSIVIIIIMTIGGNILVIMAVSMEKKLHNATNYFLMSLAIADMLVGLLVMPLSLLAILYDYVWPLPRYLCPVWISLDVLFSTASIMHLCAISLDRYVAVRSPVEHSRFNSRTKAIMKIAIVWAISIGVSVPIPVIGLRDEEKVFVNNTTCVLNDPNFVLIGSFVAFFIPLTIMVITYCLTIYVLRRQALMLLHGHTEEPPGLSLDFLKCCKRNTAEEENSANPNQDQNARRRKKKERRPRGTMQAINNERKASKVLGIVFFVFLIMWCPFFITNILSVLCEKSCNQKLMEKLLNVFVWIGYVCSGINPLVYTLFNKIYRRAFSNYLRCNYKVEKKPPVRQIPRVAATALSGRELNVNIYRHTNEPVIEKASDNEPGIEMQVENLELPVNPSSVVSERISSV

SMILES	activation at 1 µM [1] [%]	also measured
CC(C)N(C)c1ccc2c(c1)OCCNC2 [Example 4, N-isopropyl-N-methyl-2,3,4,5-tetrahydro-1,4-benzoxazepine-8-amine dihydrochloride]	100	–
c1cc2c(c(-c3ccsc3)c1)OCCNC2 [Example 16, 9-(3-thienyl)-2,3,4,5-tetrahydro-1,4-benzoxazepine hydrochloride]	99.1	–
c1cc2c(cc1N1CCOCC1)OCCNC2 [Example 1, 8-(morpholin-4-yl)-2,3,4,5-tetrahydro-1,4-benzoxazepine hydrochloride]	95.4	–
c1ccc(-c2cccc3c2OCCNC3)cc1 [Example 9, 9-phenyl-2,3,4,5-tetrahydro-1,4-benzoxazepine hydrochloride]	93.1	–
CC(c1cccc2c1OCCNC2)C(F)(F)F (centres unmarked) [Example 59, 9-(2,2,2-trifluoro-1-methylethyl)-2,3,4,5-tetrahydro-1,4-benzoxazepine hydrochloride]	95.2	–
c1cc2c(c(C3CCOC3)c1)OCCNC2 (centres unmarked) [Example 55, 9-(tetrahydrofuran-3-yl)-2,3,4,5-tetrahydro-1,4-benzoxazepine hydrochloride]	103	–
c1cc2c(cc1N1CCCCC1)OCCNC2 [Example 3, 8-(piperidin-1-yl)-2,3,4,5-tetrahydro-1,4-benzoxazepine dihydrochloride]	94.3	–
Cc1ccccc1-c1cccc2c1OCCNC2 [Example 11, 9-(2-methylphenyl)-2,3,4,5-tetrahydro-1,4-benzoxazepine hydrochloride]	92.7	–
c1cc2c(c(-c3ccoc3)c1)OCCNC2 [Example 15, 9-(3-furyl)-2,3,4,5-tetrahydro-1,4-benzoxazepine hydrochloride]	96.2	–
c1cc2c(cc1N1CCCC1)OCCNC2 [Example 2, 8-(pyrrolidin-1-yl)-2,3,4,5-tetrahydro-1,4-benzoxazepine dihydrochloride]	93.1	–
FC(F)(F)c1ccccc1-c1cccc2c1OCCNC2 [Example 12, 9-[2-(trifluoromethyl)phenyl]-2,3,4,5-tetrahydro-1,4-benzoxazepine hydrochloride]	93.6	–
c1cc2c(c(C3CC3)c1)OCCNC2 [Example 64, 9-cyclopropyl-2,3,4,5-tetrahydro-1,4-benzoxazepine hydrochloride]	94.6	–
Clc1ccccc1-c1cccc2c1OCCNC2 [Example 10, 9-(2-chlorophenyl)-2,3,4,5-tetrahydro-1,4-benzoxazepine hydrochloride]	94	–
CCN(CC)c1ccc2c(c1)OCCNC2 [Example 5, N,N-diethyl-2,3,4,5-tetrahydro-1,4-benzoxazepine-8-amine dihydrochloride]	91.9	–
C1=C(c2cccc3c2OCCNC3)CCC1 [Example 26, 9-(cyclopenta-1-en-1-yl)-2,3,4,5-tetrahydro-1,4-benzoxazepine hydrochloride]	101	–
c1cc2c(c(N3CCCC3)c1)OCCNC2 [Example 7, 9-(pyrrolidin-1-yl)-2,3,4,5-tetrahydro-1,4-benzoxazepine dihydrochloride]	107	–
Cl.c1cc2c(c(C3CCC3)c1)OCCNC2 [Example 63, 9-cyclobutyl-2,3,4,5-tetrahydro-1,4-benzoxazepine hydrochloride]	97.6	Urethral closure response, after drug administration ([2]; 3 mg/kg i.v., 10 min after administration, n=6, bladder pressure raised to 50 cm H2O): 6.2 ± 0.9 cm H2O; Urethral closure response, increase ([2]; 3 mg/kg i.v., difference between after and before drug administration, P < 0.001 vs vehicle): 4.4 ± 0.7 cm H2O; Urethral closure response, before drug administration ([2]; baseline of the 3 mg/kg i.v. group, n=6, bladder pressure raised to 50 cm H2O): 1.8 ± 0.5 cm H2O; effect on urethral closure response induced by increased bladder pressure (in words) ([2]; intravenous administration, bladder pressure 0 to 50 cm H2O): significantly increased the urethral closure response
FC1(F)CCN(c2cccc3c2OCCNC3)C1 [Example 58, 9-(3,3-difluoropyrrolidin-1-yl)-2,3,4,5-tetrahydro-1,4-benzoxazepine]	95.5	–
CCN(C)c1ccc2c(c1)OCCNC2 [Example 6, N-ethyl-N-methyl-2,3,4,5-tetrahydro-1,4-benzoxazepine-8-amine dihydrochloride]	102	–
